Data as given in US5449667A, “Amidothiophosphate derivative and insecticide, nematocide and acaricide containing the same as active ingredient” (priority 1993, dated 1995).

What was measured:
Blattella germanica = assay: Insecticidal activity against Blattella germanica; assay type: in vivo; conditions: 24 h, 0.7 ml of 500 ppm on filter paper, ten male cockroaches, after one day
Experimental: Biological Test 3 Insecticidal Avtivity Against Blattella germanica
(§1) Filter paper of 5.5 cm in diameter was laid in the bottom of a polyethylene cup (diameter: 5.5 cm). After 0.7 ml of a 500 ppm aqueous solution obtained by diluting each emulsifiable concentrate prepared from each of the present compounds according to the formulation example 1 was dropped on the filter paper and approximately 30 mg of sucrose was uniformly scattered and put on the filter paper as bait, ten male cockroaches (Blattella germanica) were left in the cup with a cover. After one day, the mortality was examined for the cockroaches.

[1] = tested on: larvae of Nilaparvata lugens; assay: Insecticidal activity against larvae of Nilaparvata lugens; assay type: in vivo; conditions: 500 ppm aqueous solution, rice stalk dip, approximately 30 larvae, after six days
Experimental: Biological Test 2 Insecticidal Activity Against Larvae of Nilaparvata lugens
A stalk of a rice plant was dipped for one minute in a 500 ppm aqueous solution obtained by diluting each emulsifiable concentrate prepared from each of the present compounds according to the formulation example 1 and then air-dried. The rice plant stalk was placed in a polyethylene cup (diameter: 5.5 cm) where filter paper (diameter: 5.5 cm) impregnated with 1 ml of water was put. Approximately 30 larvae of Nilaparvata lugens were put in the polyethylene cup. After six days, the activity was evaluated according to the following criteria:
B: the number of the living larvae is not greater than 5
C: the number of the living larvae is 6 or more

[2] = tested on: larvae of Spodoptera litura; assay: Insecticidal activity against larvae of Spodoptera litura; assay type: in vivo; conditions: 144 h, 4-instar larvae, artificial bait, after six days
Experimental: Biological Test 1 Insecticidal Activity Against Larvae of Spodoptera litura
Emulsifiable concentrates were prepared for each of the present compounds according to the formulation example 1. Thirteen grams of artificial bait for Spodoptera litura were placed in a polyethylene cup (diameter: 11 cm) and impregnated with 2 ml of the emulsifiable concentrate diluted with water (500 ppm). Ten 4-instar larvae of Spodoptera litura were put in the polyethylene cup. After six days, the mortality of the larvae was examined.

root-knot nematodes = assay: Activity against root-knot nematodes; assay type: in vivo; set-up: key: -: substantially no root knots; +: several to ten odds root knots; ++: larger number of root knots (heavier damage than +); conditions: 25 ppm active ingredient in soil, tomato root, after four weeks
Experimental: Biological Test 6 Activity Against Root-knot Nematodes
One ml of a 500 ppm aqueous solution of each of the present compounds obtained by diluting each emulsifiable concentrate prepared from each of the present compounds according to the formulation example 1 was mixed with 19 g of soil contaminated with root-knot nematodes (concentration of active ingredient in soil: 25 ppm). After the soil was kept at 27° C. for 24 hours, the root of a tomato plant (approximately two weeks after sprouting) in a cup was covered with the soil and some water was given to the plant. After four weeks, damage to the root of the tomato plant was evaluated according to the following criteria:
-: substantially no root knots
+: several to ten odds root knots
++: larger number of root knots (heavier damage than +)

[3] = tested on: larvae of Culex pipiens pallens; assay: Insecticidal activity against larvae of Culex pipiens pallens; assay type: in vivo; conditions: 3.5 ppm active ingredient in water, twenty last-instar larvae, after one day
Experimental: Biological Test 7 Insecticidal Activity Against Larvae of Culex pipiens pallens
Each of emulsifiable concentrates prepared from each of the present compounds according to the formulation example 1 was diluted with water, and 0.7 ml of the diluted solution was added to 100 ml of ion-exchanged water (concentration of active ingredient: 3.5 ppm). Twenty last-instar larvae of Culex pipiens pallens were left in the water. After one day, the activity was evaluated according to the following criteria:
A: Mortality not less than 90%
B: Mortality not less than 10% but less than 90%
C: Mortality less than 10%

Musca domestica = assay: Insecticidal activity against Musca domestica; assay type: in vivo; conditions: 24 h, 0.7 ml of 500 ppm on filter paper, ten female house flies, after one day
Experimental: Biological Test 4 Insecticidal Activity Against Musca domestica
as §1, with “scattered,” for “scattered”, “female house flies (Musca domestica)” for “male cockroaches (Blattella germanica)”, “flies.” for “cockroaches.”

[4] = tested on: larvae of Diabrotica undecimpunctata; assay: Insecticidal activity against larvae of Diabrotica undecimpunctata; assay type: in vivo; conditions: 1 ml of 50 ppm on filter paper, approximately thirty eggs, after eight days
Experimental: Biological Text 5 Insecticidal Activity Against Larvae of Diabrotica undecimpunctata
Filter paper of 5.5 cm in diameter was laid in the bottom of a polyethylene cup (diameter: 5.5 cm). After 1 ml of a 50 ppm aqueous solution obtained by diluting each of the emulsifiable concentrate prepared from each of the present compounds according to the formulation example 1 was dropped on the filter paper and one sprouting corn crop was placed as bait on the paper, approximately thirty eggs of Diabrotica undecimpunctata were left on the filter paper. After eight days, the rate of hatched larvae was examined. The activity were evaluated according to the following criteria:
B: Mortality not less than 90% but less than 100%
C: Mortality less than 90%

Tetranychus cinnabarinus = assay: Activity against Tetranychus cinnabarinus; assay type: in vivo; set-up: key: -: substantially no damage; +: little damage; ++: heavy damage; conditions: 500 ppm, 15 ml spray plus 2 ml soil injection, kidney bean, after eight days
Experimental: Biological Test 8 Activity Against Tetranychus cinnabarinus
Ten male mites (Tetranychus cinnabarinus) per leaf were placed on a pot-planted kidney bean (Phasseolus vulgaris: seven days after sowing) and kept in a thermostatic chamber. After six days, 15 ml of a 500 ppm aqueous solution obtained by diluting each emulsifiable concentrate of each of the present compounds according to the formulation example 1 was sprayed in a pot simultaneously with injection of 2 ml of the solution into soil. After eight days, damage to the plant by Tetranychus cinnabarinus was evaluated according to the following criteria:
-: substantially no damage

[5] = Acute toxicity in oral application to mice; conditions: mouse, in vivo, 5 mg/kg, ICR male mice, after seven days
Experimental: Biological Test 9 Acute Toxicity in Oral Application to Mice
Each of the present compound was diluted with corn oil to a predetermined concentration. After subjecting the mice to a twenty-hour fasting, 0.1 ml of the diluted solution per 10 g weight was forcibly applied into the stomach of each ICR male 6-week old mouse (weight: 24 to 31 g). The mice were given food and water four hours after the application and thereafter regularly fed and watered, and kept in a cage. After seven days, the mortality was examined for the mice (4 mice/group).

SMILES	mortality at 500 ppm (Blattella germanica) [%]	Activity [1]	mortality at 500 ppm [2] [%]	Activity (root-knot nematodes)	Activity [3]	mortality at 500 ppm (Musca domestica) [%]	Activity [4]	Activity (Tetranychus cinnabarinus)	mortality at 168 h [5] [%]
CCCSP(=O)(OCC)N(CC#N)C(=O)OCC (stereo not drawn) [Compound 8]	100	A (no living larvae)	100	-	A (Mortality not less than 90%)	100	A (Mortality 100%)	-	
CCCSC(=O)N(CCC#N)P(=O)(OCC)SC(C)CC (stereo not drawn) [Compound 19]	100			-	A (Mortality not less than 90%)	100	A (Mortality 100%)	-	
CCCSP(=O)(OC)N(CC#N)C(=O)OC(C)C (stereo not drawn) [Compound 3]	100	A (no living larvae)	100	-	A (Mortality not less than 90%)	100	A (Mortality 100%)	-	
CCOC(=O)N(CC#N)P(=O)(OC)SC(C)CC (stereo not drawn) [Compound 6]	100	A (no living larvae)	100	-	A (Mortality not less than 90%)	100	A (Mortality 100%)	-	
CCCSP(=O)(OC)N(CC#N)C(=O)OCC (stereo not drawn) [Compound 2]	100	A (no living larvae)	100	-	A (Mortality not less than 90%)	100	A (Mortality 100%)	-	
CCOP(=O)(SC(C)CC)N(CC#N)C(=O)SC (stereo not drawn) [Compound 11]	100		100	-	A (Mortality not less than 90%)	100	A (Mortality 100%)	-	
CCC(C)SP(=O)(OC)N(CC#N)C(=O)OC (stereo not drawn) [Compound 4]	100	A (no living larvae)	100	-	A (Mortality not less than 90%)	100	A (Mortality 100%)	-	
CCCSP(=O)(OCC)N(CC#N)C(=O)OC (stereo not drawn) [Compound 7]	100	A (no living larvae)	100	-	A (Mortality not less than 90%)	100	A (Mortality 100%)	-	
CCC(C)SP(=O)(NC)OC (stereo not drawn) [A, reference compound]									100
CCCSC(=O)N(CC#N)P(=O)(OCC)SC(C)CC (stereo not drawn) [Compound 12]	100		100	-	A (Mortality not less than 90%)	100	A (Mortality 100%)	-	
CCCSP(=O)(OC)N(CC#N)C(=O)OC (stereo not drawn) [Compound 1]	100	A (no living larvae)	100	-	A (Mortality not less than 90%)	100	A (Mortality 100%)	-	
CCOP(=O)(SC(C)CC)N(CC#N)C(=O)Oc1ccccc1 (stereo not drawn) [Compound 14, O-ethyl S-sec-butyl N-cyanomethyl N-phenoxycarbonyl phosphoroamidothiolate]	100	A (no living larvae)	100	-	A (Mortality not less than 90%)	100	A (Mortality 100%)	-	
CCOC(=O)N(CCC#N)P(=O)(OCC)SC(C)CC (stereo not drawn) [Compound 20]	100		100	-	A (Mortality not less than 90%)	100	A (Mortality 100%)	-	
CCOP(=O)(SC(C)CC)N(CC#N)C(=O)OCC(C)C (stereo not drawn) [Compound 18]	100	A (no living larvae)	100	-	A (Mortality not less than 90%)	100	A (Mortality 100%)	-	
CCOP(=O)(SC(C)CC)N(CC#N)C(=O)c1ccccc1 (stereo not drawn) [Compound 16]	100	A (no living larvae)	100	-	A (Mortality not less than 90%)	100	A (Mortality 100%)	-	
CCC(C)SP(=O)(OC)N(CC#N)C(=O)Oc1ccccc1 (stereo not drawn) [Compound 15]								-	
CCOP(=O)(SC(C)CC)N(CC#N)C(=O)OC(C)C (stereo not drawn) [Compound 17]	100	A (no living larvae)	100	-	A (Mortality not less than 90%)	100	A (Mortality 100%)	-	
CCCSP(=O)(OC)N(CCC#N)C(=O)SC (stereo not drawn) [Compound 5]			100	-		100	A (Mortality 100%)	-	
CCOC(=O)N(CC#N)P(=O)(OCC)SC(C)CC (stereo not drawn) [Compound 10]	100		100	-	A (Mortality not less than 90%)	100	A (Mortality 100%)	-	
